In patent publication US20050004126A1 (priority 2001, published 2005):
Where two headings read alike, the source gives them in different places. Each block holds one compound with its values, some of them ahead of it.

What was measured:
[1] = molecular target: T1, MMP-13CD (catalytic domain of collagenase 3) (Homo sapiens, UniProt P45452); experiment: Thiopeptolide hydrolysis assay, MMP-13;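 also: inhibition of enzymatic thiopeptolide substrate cleavage (100 µM) in pH 6.0 MES buffer with CaCl2 and DTNB, comparing hydrolysis with versus without inhibitor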
[2] = molecular target: T1, MMP-13CD (catalytic domain of collagenase 3); experiment: biochemical
[3] = molecular target: T2, MMP-2FL (full length Gelatinase A) (Homo sapiens, UniProt P08253); experiment: Thiopeptolide hydrolysis assay, MMP-2; assay type: biochemical
T2 sequence (P08253 110-660): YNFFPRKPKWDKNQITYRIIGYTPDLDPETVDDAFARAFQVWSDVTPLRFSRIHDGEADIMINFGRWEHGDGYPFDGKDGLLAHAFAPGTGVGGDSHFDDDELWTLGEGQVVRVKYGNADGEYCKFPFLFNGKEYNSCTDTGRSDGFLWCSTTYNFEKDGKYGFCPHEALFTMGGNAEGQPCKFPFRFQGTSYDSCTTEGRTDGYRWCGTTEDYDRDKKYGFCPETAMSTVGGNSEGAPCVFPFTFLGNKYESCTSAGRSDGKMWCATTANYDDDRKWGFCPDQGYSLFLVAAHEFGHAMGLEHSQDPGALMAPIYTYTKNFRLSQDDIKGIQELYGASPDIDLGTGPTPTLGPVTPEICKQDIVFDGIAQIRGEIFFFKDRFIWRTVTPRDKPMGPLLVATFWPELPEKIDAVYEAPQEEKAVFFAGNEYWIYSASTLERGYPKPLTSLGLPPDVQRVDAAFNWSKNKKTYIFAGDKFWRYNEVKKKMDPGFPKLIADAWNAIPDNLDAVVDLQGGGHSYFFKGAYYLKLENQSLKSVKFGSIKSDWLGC

[4] = molecular target: T3, MMP-1FL (full-length interstitial collagenase) (Homo sapiens, UniProt P03956); experiment: Thiopeptolide hydrolysis assay, MMP-1; assay type: biochemical
T3 sequence (P03956 100-469): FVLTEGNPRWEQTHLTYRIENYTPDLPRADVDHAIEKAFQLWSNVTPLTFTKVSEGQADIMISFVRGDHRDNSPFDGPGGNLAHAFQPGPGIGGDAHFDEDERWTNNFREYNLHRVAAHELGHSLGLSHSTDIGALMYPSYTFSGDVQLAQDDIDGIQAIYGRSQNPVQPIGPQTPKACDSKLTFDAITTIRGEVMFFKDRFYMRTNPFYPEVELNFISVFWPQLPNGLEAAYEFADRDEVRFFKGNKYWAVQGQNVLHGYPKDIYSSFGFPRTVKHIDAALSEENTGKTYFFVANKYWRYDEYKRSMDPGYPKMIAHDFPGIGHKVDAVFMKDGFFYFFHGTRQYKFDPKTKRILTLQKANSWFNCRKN

[5] = molecular target: MMP-14CD (catalytic domain of membrane type 1 MMP) (Homo sapiens, UniProt P50281); experiment: Thiopeptolide hydrolysis assay, MMP-14; assay type: biochemical
[6] = molecular target: MMP-9FL (full length Gelatinase B) (Homo sapiens, UniProt P14780); experiment: Thiopeptolide hydrolysis assay, MMP-9; assay type: biochemical
[7] = molecular target: MMP-3CD (catalytic domain of stromelysin) (Homo sapiens, UniProt P08254); experiment: Thiopeptolide hydrolysis assay, MMP-3; assay type: biochemical;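 also: inhibition of thiopeptolide substrate (100 µM) cleavage by the MMP-3 catalytic domain, detected with DTNB at pH 6.0 with CaCl2, hydrolysis compared against runs lacking inhibitor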
[8] = molecular target: T4, MMP-7FL (full-length matrilysin) (Homo sapiens, UniProt P09237); experiment: Thiopeptolide hydrolysis assay, MMP-7; assay type: biochemical
T4 sequence (P09237 95-267): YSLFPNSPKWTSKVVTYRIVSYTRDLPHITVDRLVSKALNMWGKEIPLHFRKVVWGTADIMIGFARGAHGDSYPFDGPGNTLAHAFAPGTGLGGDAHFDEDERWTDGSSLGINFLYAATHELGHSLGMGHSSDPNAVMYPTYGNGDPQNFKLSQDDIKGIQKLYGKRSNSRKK

[9] = Table VI, synthesis examples, read-out: MMP02
[10] = Table VI, synthesis examples, read-out: MMP01
[11] = Table VI, synthesis examples, read-out: MMP014
[12] = Table VI, synthesis examples, read-out: MMP09
[13] = Table 1a, full-length enzyme, read-out: MMP02 (FL) IC50
[14] = Table 1a, full-length enzyme, read-out: MMLP01 (FL) IC50
[15] = Table 1a, catalytic domain, read-out: MMP14 (CD) IC50
[16] = Table 1a, full-length enzyme, read-out: MMP09 (FL) IC50
[17] = Table 1a, catalytic domain, read-out: MMP03 (CD) IC50
[18] = MMP13 (CD) IC50 μM, Table 1a, catalytic domain
[19] = Table 1a, full-length enzyme, read-out: MMP07 (FL) IC50
[20] = Table VI, synthesis examples, read-out: MMP07

MMP-9FL (full length Gelatinase B), sequence (P14780 94-707): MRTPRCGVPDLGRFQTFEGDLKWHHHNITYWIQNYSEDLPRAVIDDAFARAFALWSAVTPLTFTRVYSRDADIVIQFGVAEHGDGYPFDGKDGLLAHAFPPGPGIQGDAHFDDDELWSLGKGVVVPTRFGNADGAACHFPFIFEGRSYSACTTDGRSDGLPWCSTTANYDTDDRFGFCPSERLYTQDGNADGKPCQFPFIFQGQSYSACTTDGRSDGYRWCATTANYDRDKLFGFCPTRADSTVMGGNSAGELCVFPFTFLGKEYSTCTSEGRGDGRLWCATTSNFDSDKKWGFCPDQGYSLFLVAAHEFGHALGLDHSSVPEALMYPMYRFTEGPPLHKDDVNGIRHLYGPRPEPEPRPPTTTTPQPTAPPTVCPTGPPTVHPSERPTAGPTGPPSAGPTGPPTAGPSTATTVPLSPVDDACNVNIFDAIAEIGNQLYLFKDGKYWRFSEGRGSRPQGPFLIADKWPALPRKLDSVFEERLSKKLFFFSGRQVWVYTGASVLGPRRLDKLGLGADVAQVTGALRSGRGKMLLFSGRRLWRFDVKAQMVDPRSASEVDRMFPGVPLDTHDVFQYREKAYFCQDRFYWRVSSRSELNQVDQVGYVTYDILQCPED
MMP-3CD (catalytic domain of stromelysin), sequence (P08254 100-272 limits assumed): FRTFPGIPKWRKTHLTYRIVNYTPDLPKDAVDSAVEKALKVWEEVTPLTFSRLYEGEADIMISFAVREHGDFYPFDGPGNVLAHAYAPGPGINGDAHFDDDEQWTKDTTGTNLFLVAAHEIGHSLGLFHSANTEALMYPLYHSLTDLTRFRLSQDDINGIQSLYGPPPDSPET

SMILES: COc1ccc(CNC(=O)c2cn3c(=O)n(Cc4ccc(C(=O)O)cc4)c(=O)c(C)c3s2)cc1 [Example 5]
- IC50 [3, 13]: > 100 µM
- IC50 [4, 14]: > 100 µM
- IC50 [5, 15]: > 100 µM
- IC50 [6, 16]: > 100 µM
- IC50 [7, 17]: 29 µM
- IC50 [1, 18]: 0.0015 µM
- IC50 [8, 19]: > 100 µM

SMILES: O=C(O)c1ccc(Cn2c(=O)c3cc(C(=O)NCc4ccc5c(c4)OCO5)ccc3n3cnnc23)cc1 [Synthesis Example 61, 4-{7-[(1,3-Benzodioxol-5-ylmethyl)-carbamoyl]-5-oxo-5H-[1,2,4]triazolo[4,3-a]quinazol-4-ylmethyl}benzoic acid]
- IC50 ([1]; IC50 μM, Table V, MMP-13): 0.0009 µM
- melting point: 235 °C

SMILES: Cc1c(=O)n(Cc2ccccc2)c(=O)n2cc(C(=O)OCc3ccccc3)sc12 [Example 3]
- IC50 [3, 13]: > 100 µM
- IC50 [5]: > 100 µM
- IC50 [6, 16]: > 100 µM
- IC50 [7, 17]: > 30 µM
- IC50 [1, 18]: 0.0056 µM
- IC50 [8, 19]: > 100 µM

SMILES: COc1ccc(CNC(=O)c2cn3c(=O)n(Cc4ccc(C(=O)O)cc4)c(=O)c(C)c3s2)cc1 [Synthesis Example 5, 4-[2-(4-Methoxy-benzylcarbamoyl)-8-methyl-5,7-dioxo-7H-thiazolo[3,2-c]pyrimidin-6-ylmethyl]-benzoic acid]
- melting point: > 210 °C

SMILES: COc1ccc(CNC(=O)c2ccc3c(c2)S(=O)(=O)N(Cc2ccc([N+](=O)[O-])cc2)C(=O)N3C)cc1 [compound 65]
- IC50 [4, 10]: > 30 µM
- IC50 [5, 11]: > 30 µM
- IC50 [6, 12]: > 30 µM
- IC50 [8, 20]: > 30 µM

SMILES: Cc1c(=O)n(Cc2ccc(S(C)(=O)=O)cc2)c(=O)n2cc(C(=O)NCc3ccncc3)sc12 [Example 7]
- IC50 [3, 13]: > 100 µM
- IC50 [5, 15]: > 100 µM
- IC50 [6, 16]: > 100 µM
- IC50 [7, 17]: > 100 µM
- IC50 [1, 18]: 0.0235 µM
- IC50 [8, 19]: > 100 µM

SMILES: Cc1c(=O)n(Cc2ccc(C(=O)O)cc2)c(=O)n2cc(C(=O)NCc3ccncc3)sc12 [Example 6]
- IC50 [3, 13]: > 100 µM
- IC50 [5, 15]: > 100 µM
- IC50 [6, 16]: > 100 µM
- IC50 [7, 17]: > 100 µM
- IC50 [1, 18]: 0.0057 µM
- IC50 [8, 19]: > 100 µM

SMILES: O=C(OCc1ccncc1)c1cn2c(=O)n(Cc3ccccc3)c(=O)cc2s1 [Example 4]
- IC50 [5, 15]: ≥ 100 µM
- IC50 [6, 16]: ≥ 100 µM
- IC50 [7, 17]: ≥ 30 µM
- IC50 [1, 18]: 0.0054 µM
- IC50 [8, 19]: ≥ 100 µM

SMILES: Cn1c(=O)[nH]c(=O)c2cc(C(=O)NCc3ccc4c(c3)OCO4)ccc21 [Synthesis Example 37, 1-Methyl-2,4-dioxo-1,2,3,4-tetrahydroquinazoline-6-carboxylic acid (benzo[1,3]dioxol-5-ylmethyl)amide]
- IC50 [2]: 0.92 µM

SMILES: COc1ccc(CNC(=O)c2cnc3c(c2)c(=O)n(Cc2ccc(C#N)cc2)c(=O)n3C)cc1 [Synthesis Example 51, 3-(4-Cyano-benzyl)-1-methyl-2,4-dioxo-1,2,3,4-tetrahydro-pyrido[2,3-d]pyrimidine-6-carboxylic acid 4-methoxy-benzylamide]
- IC50 [2]: 0.016 µM

SMILES: COc1ccc(CNC(=O)c2cn3c(=O)n(Cc4ccc(Cl)c(Cl)c4)c(=O)cc3s2)cc1 [Example 8]
- IC50 [3, 13]: > 100 µM
- IC50 [4, 14]: > 100 µM
- IC50 [5, 15]: > 100 µM
- IC50 [6, 16]: > 100 µM
- IC50 [7, 17]: > 100 µM
- IC50 [1, 18]: 0.084 µM
- IC50 [8, 19]: > 100 µM

SMILES: Cn1c(=O)c2cc(C(=O)NCc3ccc4c(c3)OCO4)ccc2n(C)c1=O [1,3-Dimethyl-2,4-dioxo-1,2,3,4-tetrahydroquinazoline-6-carboxylic acid (benzo[1,3]dioxol-5-ylmethyl)amide]
- IC50 [2]: 1.7 µM

SMILES: COC(=O)c1ccc(Cn2c(=O)c3cc(C(=O)NCc4ccc(OC)cc4)ncc3n(C)c2=O)cc1 [Synthesis Example 54, Methyl 4-[6-(4-Methoxy-benzylcarbamoyl)-1-methyl-2,4-dioxo-1,4-dihydro-2H-pyrido[3,4-d]pyrimidin-3-ylmethyl]-benzoate]
- IC50 [2]: 0.0017 µM

Further lines, results first:

- IC50 ([1]; MMP13 IC50 μM, Table IVb): 0.014 µM
- IC50 [2]: 0.014 µM
SMILES: O=C(NCc1ccc2c(c1)OCO2)c1ccc2[nH]c(=S)n(Cc3ccccc3)c(=O)c2c1 [3-Benzyl-4-oxo-2-thioxo-1,2,3,4-tetrahydroquinazoline-6-carboxylic acid (benzo[1,3]dioxol-5-ylmethyl)amide]

- IC50 [3, 9]: > 100 µM
- IC50 [4, 10]: > 100 µM
- IC50 [5, 11]: > 100 µM
- IC50 [6, 12]: > 100 µM
SMILES: CN1C(=O)N(Cc2ccccc2)S(=O)(=O)c2cc(C(=O)OCc3ccccc3)ccc21 [compound 62]

- IC50 [3, 13]: 81 µM
- IC50 [4, 14]: > 100 µM
- IC50 [5, 15]: > 100 µM
- IC50 [6, 16]: > 100 µM
- IC50 [7, 17]: > 100 µM
- IC50 [1, 18]: 0.51 µM
- IC50 [8, 19]: > 100 µM
SMILES: O=C(NCc1ccccc1)c1cn2c(=O)n(Cc3ccccc3)c(=O)cc2s1 [Example 2]

- IC50 [3, 9]: > 30 µM
- IC50 [4, 10]: > 100 µM
- IC50 [5, 11]: > 30 µM
- IC50 [6, 12]: > 30 µM
- IC50 ([7]; Table VI, synthesis examples, read-out: MMP03): > 30 µM
- IC50 [8, 20]: > 30 µM
SMILES: CN1C(=O)N(Cc2ccccc2)S(=O)(=O)c2cc(C(=O)NCc3ccccc3)ccc21 [compound 63]

- IC50 [3, 13]: > 100 µM
- IC50 [5, 15]: > 100 µM
- IC50 [6, 16]: > 100 µM
- IC50 ([7]; read-out: MMP03 (CD) IC50): > 100 µM
- IC50 [8, 19]: > 100 µM
SMILES: O=C(OCc1ccccc1)c1cn2c(=O)n(Cc3ccccc3)c(=O)cc2s1 [Example 1]

- melting point: 248 to 250 °C
SMILES: O=C(OCc1ccncc1)c1cc2c(=O)n(Cc3ccccc3)c(=O)[nH]c2s1 [Synthesis Example 18, 3-Benzyl-2,4-dioxo-1,2,3,4-tetrahydro-thieno[2,3-d]pyrimidine-6-carboxylic acid pyridin-4-ylmethyl ester]

- IC50 [2]: 1.87 µM
SMILES: O=C(NCc1cccs1)c1ccc2[nH]c(=O)n(Cc3ccccc3)c(=O)c2c1 [3-Benzyl-2,4-dioxo-1,2,3,4-tetrahydroquinazoline-6-carboxylic acid (2-thienylmethyl)amide]

- IC50 [2]: 0.017 µM
SMILES: O=C(NCc1ccc2c(c1)OCO2)c1ccc2[nH]c(=O)n(Cc3ccc4c(c3)OCO4)c(=O)c2c1 [Synthesis Example 34, 3-(Benzo[1,3]dioxol-5-ylmethyl)-2,4-dioxo-1,2,3,4-tetrahydroquinazoline-6-carboxylic acid (benzo[1,3]dioxol-5-ylmethyl)amide]

- IC50 [2]: 0.057 µM
SMILES: Cn1c(=O)n(Cc2ccccc2)c(=O)c2cc(C(=O)NCc3ccccc3)ccc21 [3-Benzyl-1-methyl-2,4-dioxo-1,2,3,4-tetrahydroquinazoline-6-carboxylic acid benzylamide]

- IC50 [2]: 0.167 µM
SMILES: O=C(NCc1ccc(Cl)cc1)c1ccc2[nH]c(=O)n(Cc3ccccc3)c(=O)c2c1 [3-Benzyl-2,4-dioxo-1,2,3,4-tetrahydroquinazoline-6-carboxylic acid 4-chlorobenzylamide]

- IC50 [2]: 0.009 µM
SMILES: Cn1c(=O)n(Cc2ccc(Cl)cc2)c(=O)c2cc(C(=O)NCc3ccc4c(c3)OCO4)ccc21 [Synthesis Example 33, 3-(4-Chlorobenzyl)-1-methyl-2,4-dioxo-1,2,3,4-tetrahydroquinazoline-6-carboxylic acid (benzo[1,3]dioxol-5-ylmethyl)amide]

- IC50 [2]: 0.049 µM
SMILES: COc1ccc(CNC(=O)c2ccc3[nH]c(=O)n(Cc4ccccc4)c(=O)c3c2)cc1 [3-Benzyl-2,4-dioxo-1,2,3,4-tetrahydroquinazoline-6-carboxylic acid 4-methoxybenzylamide]
